The text below walks through data of PMC3378510 (Nature immunology, 2012).

One test deals with 1E6 CD8^+ T cell clone. The test is described as follows: Peptide mutagenesis scan of 1E6 T cells, TNF secretion. In kind it is cell-based, human. To be noted: compared with index peptide; peptide 1 μg/ml, 16 hr.
The test system of test [1] is 1E6 clone, in the context of HLA A*0201. As to conditions: compared with preproinsulin-derived peptide ALWGPDPAAA; cited from earlier work.

On to “Q: L Position 2: ALWGPDPAAA with L2 mutated to Q (AQWGPDPAAA)”, for which the “TNF response / activation, in words” value in the test with 1E6 CD8^+ T cell clone was “larger responses compared with the index peptide”. Still for that read-out and setting: to “R: A Position 1: ALWGPDPAAA with A1 mutated to R (RLWGPDPAAA)” belongs “larger responses compared with the index peptide”. As to RQFGPDFPTI, the “agonist potency, in words” value in test [1] was “most potent peptide identified”.
